Data as given in patent US10161932B2, “Azetidine-substituted fluorescent compounds” (HOWARD HUGHES MEDICAL INSTITUTE, priority 2014, dated 2018).
Where two headings read alike, the source gives them in different places.

Key:
[1] = Quantum yield measurement (Quantaurus-QY spectrometer); type: physicochemical
Description: All reported quantum yield values were measured in under identical conditions using a Quantaurus-QY spectrometer (C11374, Hamamatsu). Measurements were carried out using dilute samples (A<0.1) and self-absorption corrections were performed using the instrument software. Reported values are averages (n=3).

[2] = Absorption and fluorescence spectroscopy of dyes; type: physicochemical
Description: Phosphate buffered saline (PBS) was at pH 7.4 unless otherwise noted.
Spectroscopy was performed using 1-cm path length, 3.5-mL quartz cuvettes from Starna Cells or 1-cm path length, 1.0-mL quartz microcuvettes from Hellma. All measurements were taken at ambient temperature (22±2° C.) in 10 mM HEPES, pH 7.3 buffer unless otherwise noted. Absorption spectra were recorded on a Cary Model 100 spectrometer (Varian); reported values for extinction coefficients (ε) are averages (n=3). Fluorescence spectra were recorded on a Cary Eclipse fluorometer (Varian). Normalized spectra are shown for clarity.

[3] = Fluorescence lifetime measurement; conditions: for τ: Table 2, 10 mM HEPES pH 7.3 per table footnote
Description: For fluorescence lifetime measurements, a pulse picker (Model 350-160, ConOptics) was placed in the laser beam to reduce the pulse frequency from 80 MHz to 20 MHz. Samples (2 μM dye diluted in 50 mM HEPES, pH 7.2, H2O, or CH3OH) were excited at 830 nm laser wavelength and 6 mW laser power. The emitted light was collected by the fast-timing APD and fed to the single-photon counting board (TimeHarp200; PicoQuant). Timing pulses were obtained from a PIN diode (DET01CFC; ThorLabs) monitoring the 20 MHz pulse train. The temporal impulse response of the system was determined by second harmonic generation of laser pulses using a thin nonlinear crystal in place of a dye sample. The lifetime decay data was fit to a single exponential decay function using a custom MATLAB program.

Row | SMILES | ε ([2]; Table 3, 10 mM HEPES pH 7.3) | λem ([2]; Table 3, 10 mM HEPES pH 7.3) [nm] | λmax ([2]; Table 3, 10 mM HEPES pH 7.3) [nm] | ε (extinction coefficient) ([2]; aqueous buffer) [M⁻¹ cm⁻¹] | ϕ (quantum yield) ([1]; aqueous buffer) | ϕ ([1]; Table 1, 10 mM HEPES pH 7.3) | ε ([2]; Table 1, 10 mM HEPES pH 7.3) | λem ([2]; Table 1, 10 mM HEPES pH 7.3) [nm] | λmax ([2]; Table 1, 10 mM HEPES pH 7.3) [nm] | other results
1 | CN(C)c1ccc2c(c1)Oc1cc(O)ccc1C21OC(=O)c2ccccc21 (centres unmarked) [dimethyl rhodol, reference compound] | 60,000 M^−1 cm^−1 | 546 | 518 | 60000 | – | – | – | – | – | ϕ (quantum yield) [1]: 0.21; ϕ ([1]; pH 7.3): 0.21
2 | CN(C)c1ccc2c(-c3ccccc3C(=O)[O-])c3ccc(N(C)C)cc3[o+]c2c1 [TMR, tetramethylrhodamine, reference compound] | – | – | – | 78000 | 0.41 | – | – | – | – | τ (fluorescence lifetime) [3]: 2.2 ns; τ [3]: 2.21 ns; ϕ ([1]; pH 7.3): 0.41; ε ([2]; Table 2, 10 mM HEPES pH 7.3): 78,000 M^−1 cm^−1; λem ([2]; Table 2, 10 mM HEPES pH 7.3): 572 nm; λmax ([2]; Table 2, 10 mM HEPES pH 7.3): 548 nm
3 | Cl.N=c1ccc2c(-c3ccccc3C(=O)O)c3ccc(N)cc3oc-2c1 [rhodamine 110, reference compound] | – | – | – | 76000 | 0.88 | – | – | – | – | τ (fluorescence lifetime) [3]: 3.3 ns; τ [3]: 3.26 ns; ϕ ([1]; Table 2, 10 mM HEPES pH 7.3): 0.88; ε ([2]; Table 2, 10 mM HEPES pH 7.3): 76,000 M^−1 cm^−1; λem ([2]; Table 2, 10 mM HEPES pH 7.3): 520 nm; λmax ([2]; Table 2, 10 mM HEPES pH 7.3): 497 nm
4 | c1cc2cc3ccc(N4CCC4)cc3nc2cc1N1CCC1 [Example 60, 3,6-Di(azetidin-1-yl)acridine] | 47,000 M^−1 cm^−1 | 531 | 492 | – | 0.52 | – | – | – | – | ϕ ([1]; Table 3, 10 mM HEPES pH 7.3): 0.52; increase in quantum yield / brightness relative to parent N,N-dialkyl dye ([1]; azetidine-substituted vs parent fluorophore): 2.5 fold
5 | Cc1cc(=O)oc2cc(N(C)C)ccc12 [Coumarin 461, reference compound] | 18,000 M^−1 cm^−1 | 470 | 372 | 18000 | – | – | – | – | – | ϕ (quantum yield) [1]: 0.19; ϕ ([1]; pH 7.3): 0.19
6 | O=C([O-])c1ccccc1-c1c2ccc(=[N+]3CC(F)(F)C3)cc-2oc2cc(N3CC(F)(F)C3)ccc12 [Example 9, 2-(3,6-Bis(3,3-difluoroazetidin-1-yl)xanthylium-9-yl)benzoate] | – | – | – | – | – | 0.91 | 94,000 M^−1 cm^−1 | 549 | 525 | –
7 | C[Si]1(C)C2=CC(=[N+]3CCC3)C=CC2=C(c2ccccc2C(=O)[O-])c2ccc(N3CCC3)cc21 [Example 30, 2-(3,7-Di(azetidin-1-yl)-5,5-dimethyldibenzo[b,e]silin-10-ylium-10(5H)-yl)benzoate] | – | 664 | 646 | – | 0.54 | 0.54 | – | 664 | 646 | ϕ ([1]; Table 3, 10 mM HEPES pH 7.3): 0.54; ε ([2]; Table 1, ethanol containing 0.1% (v/v) trifluoroacetic acid): 152,000^b M^−1 cm^−1; ε ([2]; Table 3, ethanol containing 0.1% v/v trifluoroacetic acid): 152,000^a M^−1 cm^−1; ε (extinction coefficient) ([2]; acidic ethanol): 152000 M⁻¹ cm⁻¹; λmax ([2]; text b257, unit not given): 646
8 | O=C([O-])c1ccccc1-c1c2ccc(=[N+]3CCC3)cc-2oc2cc(N3CCC3)ccc12 [Example 7, 2-(3,6-Di(azetidin-1-yl)xanthylium-9-yl)benzoate] | – | – | – | – | 0.88 | 0.88 | 101,000 M^−1 cm^−1 | 571 | 549 | τ (fluorescence lifetime) [3]: 3.8 ns; τ [3]: 3.84 ns; ϕ ([1]; Table 2, 10 mM HEPES pH 7.3): 0.88; brighter than the pyrrolidine derivative ([1]; one-photon excitation): 60%; ε ([2]; Table 2, 10 mM HEPES pH 7.3): 101,000 M^−1 cm^−1; λem ([2]; Table 2, 10 mM HEPES pH 7.3): 571 nm; λmax ([2]; Table 2, 10 mM HEPES pH 7.3): 549 nm; higher extinction coefficient than the other dyes ([2]; rhodamines of Table 2): ~30%
9 | CCN(CC)c1ccc2nc3ccc(=[N+](CC)CC)cc-3oc2c1.[O-][Cl+3]([O-])([O-])[O-] [Oxazine 1, reference compound] | 111,000 M^−1 cm^−1 | 669 | 655 | 111000 | 0.07 | – | – | – | – | ϕ ([1]; Table 3, 10 mM HEPES pH 7.3): 0.07
10 | O=C(O)CC1CN(c2ccc3c(-c4ccccc4C(=O)[O-])c4ccc(=[N+]5CC(CC(=O)O)C5)cc-4oc3c2)C1 (centres unmarked) [Example 17, 2-(3,6-Bis(3-(carboxymethyl)azetidin-1-yl)xanthylium-9-yl)benzoate] | – | – | – | – | – | 0.87 | 111,000 M^−1 cm^−1 | 572 | 549 | –
11 | COC1CN(c2ccc3c(-c4ccccc4C(=O)[O-])c4ccc(=[N+]5CC(OC)C5)cc-4oc3c2)C1 (centres unmarked) [Example 11, 2-(3,6-Bis(3-methoxyazetidin-1-yl)xanthylium-9-yl)benzoate] | – | – | – | – | – | 0.88 | 109,000 M^−1 cm^−1 | 564 | 541 | –
12 | N#CC1CN(c2ccc3c(-c4ccccc4C(=O)[O-])c4ccc(=[N+]5CC(C#N)C5)cc-4oc3c2)C1 (centres unmarked) [Example 12, 2-(3,6-Bis(3-cyanoazetidin-1-yl)xanthylium-9-yl)benzoate] | – | – | – | – | – | 0.89 | 108,000 M^−1 cm^−1 | 557 | 533 | –
